Laboratory results from the supplement of paper PMC10307832.

Key:
Assay in all cases: relative viability (nuclei count vs DMSO), 5 days (fraction); higher = more cells survive
[1] = compound: C1/C(=C\C2=CC=CS2)/C(=O)/C(=C/C3=CC=CS3)/C1 + C[C@]1(O)C[C@@H](c2nc(-c3ccc4ccc(-c5ccccc5)nc4c3)c3c(N)nccn32)C1 [Linsitinib] (partner 1 µM)
Summary of the method: (§1)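 The day after seeding in 1536-well plates, lung cancer cell lines were treated by pin tool with a single drug, or with a fixed anchor-drug dose together with five library-drug doses (not always all listed) in √10 steps. After 5 days, a combined fix-and-stain solution (final 0.05% Triton X-100, 1% formaldehyde, 1 ug/ml Hoechst) was added. Nuclei counted on 4× images gave relative viability as treated counts over vehicle counts, reported as the median of duplicate plates.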

TPCA-1 + Navitoclax = compound: C1=CC(=CC=C1C2=CC(=C(S2)NC(=O)N)C(=O)N)F [TPCA-1] + CC1(C)CCC(c2ccc(Cl)cc2)=C(CN2CCN(c3ccc(C(=O)NS(=O)(=O)c4ccc(N[C@H](CCN5CCOCC5)CSc5ccccc5)c(S(=O)(=O)C(F)(F)F)c4)cc3)CC2)C1 [Navitoclax] (partner 0.5 µM)
Summary of the method: as §1

TPCA-1 + OSI-027 = compound: C1=CC(=CC=C1C2=CC(=C(S2)NC(=O)N)C(=O)N)F [TPCA-1] + COc1cccc2cc(-c3nc([C@H]4CC[C@H](C(=O)O)CC4)n4ncnc(N)c34)[nH]c12 [OSI-027] (partner 0.5 µM)
Summary of the method: as §1

TPCA-1 + Crizotinib = compound: C1=CC(=CC=C1C2=CC(=C(S2)NC(=O)N)C(=O)N)F [TPCA-1] + C[C@@H](Oc1cc(-c2cnn(C3CCNCC3)c2)cnc1N)c1c(Cl)ccc(F)c1Cl [Crizotinib] (partner 1 µM)
Summary of the method: as §1

UMC-11
relative viability ([1]; first compound 0.2 µM): 1.02 | relative viability ([1]; first compound 0.6325 µM): 1.07 | relative viability ([1]; first compound 2 µM): 1.03 | relative viability ([1]; first compound 20 µM): 1 | relative viability (TPCA-1 + Navitoclax; first compound 0.04 µM): 0.354 | relative viability (TPCA-1 + Navitoclax; first compound 0.1265 µM): 0.335 | relative viability (TPCA-1 + Navitoclax; first compound 0.4 µM): 0.394 | relative viability (TPCA-1 + Navitoclax; first compound 1.265 µM): 0.415 | relative viability (TPCA-1 + Navitoclax; first compound 4 µM): 0.253 | relative viability (TPCA-1 + OSI-027; first compound 0.04 µM): 0.536 | relative viability (TPCA-1 + OSI-027; first compound 0.1265 µM): 0.337 | relative viability (TPCA-1 + OSI-027; first compound 0.4 µM): 0.466 | relative viability (TPCA-1 + OSI-027; first compound 1.265 µM): 0.4 | relative viability (TPCA-1 + OSI-027; first compound 4 µM): 0.234 | relative viability (TPCA-1 + Crizotinib; first compound 0.04 µM): 0.579 | relative viability (TPCA-1 + Crizotinib; first compound 0.1265 µM): 0.586 | relative viability (TPCA-1 + Crizotinib; first compound 0.4 µM): 0.578 | relative viability (TPCA-1 + Crizotinib; first compound 1.265 µM): 0.573 | relative viability (TPCA-1 + Crizotinib; first compound 4 µM): 0.274
